# Residues, ends and D or L forms follow the SMILES beside them. *: point of attachment. Cbz = O=C(OCc1ccccc1)*
# System: proteasome
# Experiment: Incubation of TetR-EGFP-expressed cells with proteasome inhibitor, fluorescence by flow cytometer
# Conditions: variant TetR-EGFP-expressed cells, 100 μg/ml, 12 hours (FIG. 1C)
# Experimental: The cells were treated with trypsin and then recovered. Fluorescence-positive cell rates and the intensity of fluorescence per cell were analyzed by a flow cytometer (BD, FACSCalibur).
# These cells were incubated for 12 hours in the presence of 100 μg/ml of proteasome inhibitor MG132.
smiles,measurement,value
CC(C)C[C@@H](C=O)NC(=O)[C@H](CC(C)C)NC(=O)[C@H](CC(C)C)NC(=O)OCc1ccccc1 [MG132] (Cbz-Leu-Leu-Leu-aldehyde),change in fluorescence,marked increase

# Source: patent US20090130763A1, “Method of Controlling Degradation of Protein by Tetracycline Antibiotic” (priority 2005, published 2009)
